Data: PubChem BioAssay AID248 (DTP/NCI, 2004)
Inconclusive results and toxic doses are left out. Cut-off read from the data, not from the text of the source: active = T/C of 150% or more; inactive = T/C below 125%.

Tested on: L1210 leukemia ip in BDF1 mice, survival T/C
Experiment: NCI In Vivo Anticancer Drug Screen. Data for tumor model L1210 Leukemia (intraperitoneal) in B6D2F1 (BDF1) mice
Settings: endpoint: mean survival time, schedule: Q01DX009 (ip), higher = longer survival
Procedure, shortened: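 Each compound was tested against a transplantable tumor grown in mice. The endpoint was survival, with treated animals benchmarked against vehicle controls as a simple ratio.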

Measured: T/C

c1ccc(N2CCOCC2)cc1
inactive: dose: 12.5 mg/kg/injection, vehicle: saline with Tween-80 93 % of control | dose: 25.0 mg/kg/injection, vehicle: saline with Tween-80 100 % of control | dose: 50.0 mg/kg/injection, vehicle: saline with Tween-80 89 % of control | dose: 100.0 mg/kg/injection, vehicle: Klucel (hydroxypropylcellulose) (HPC) 95 % of control | dose: 100.0 mg/kg/injection, vehicle: saline with Tween-80 92 % of control | dose: 200.0 mg/kg/injection, vehicle: Klucel (hydroxypropylcellulose) (HPC) 93 % of control | dose: 200.0 mg/kg/injection, vehicle: saline with Tween-80 92 % of control | dose: 400.0 mg/kg/injection, vehicle: Klucel (hydroxypropylcellulose) (HPC) 101 % of control
